These results are taken from patent publication US9029395B2, “Tetrahydroquinoline derivatives useful as bromodomain inhibitors” (GlaxoSmithKline LLC, priority 2011, dated 2015).

The target of one assay is T1, Bromodomain BRD2 (1-473) (Homo sapiens, UniProt P25440).
T1 construct: Recombinant Human Bromodomains (BRD2 (1-473), BRD3 (1-435) and BRD4 (1-477)); made in house; host or cells: E. coli (pET15b vector)
The assay can be described thus: Time Resolved Fluorescence Resonance Energy Transfer (TR-FRET) binding assay, BRD2. The conditions noted are these: BRD2 100 nM, acetylated histone peptide 300 nM. On the procedure:
(§1) The binding of the compounds of formula (I) to Bromodomains BRD2, BRD3 and BRD4 was assessed using a time resolved fluorescent resonance energy transfer binding assay, that measures the binding of an acetylated histone peptide to the bromodomain protein.
(§2) The bromodomain protein, histone peptide and a variable concentration of test compound are incubated together to reach thermodynamic equilibrium.
(§3) • H-Ser-Gly-Arg-Gly-Lys(Ac)-Gly-Gly-Lys(Ac)-Gly-Leu-Gly-Lys(Ac)-Gly-Gly-Ala-Lys(Ac)-Arg-His-Gly-Ser-Gly-Ser-Lys(Biotin)-OH. 3TFA
(§4) Protein Production: Recombinant Human Bromodomains (BRD2 (1-473), BRD3 (1-435) and BRD4 (1-477)) were expressed in E. coli cells (in pET15b vector) with a six-His tag at the N-terminal. The His-tagged Bromodomain was extracted from E. coli cells using sonication and purified using a nickel sepharose 6FF column, the proteins were washed and then eluted with 50 mM Tris-Hcl pH8.0. 300 mM NaCl, 1 mM […] and 20 mM Imidazole. Further purification was performed by affinity chromatography on a HisTRAP HP column, eluting with a linear 0-500 mM sodium chloride gradient, over 20 column volumes. Final purification was completed by Superdex 200 prep grade size exclusion column. Purified protein was stored at −80 C in 20 mM HEPES pH 7.5 and 100 mM NaCl. Protein identity was confirmed by peptide mass fingerprinting and predicted molecular weight confirmed by mass spectrometry.
(§5) Protocol for Bromodomain BRD2, 3 and 4 Assays: All assay components were dissolved in buffer composition of 50 mM HEPES pH7.4, 50 mM NaCl and 0.5 mM CHAPS. The final concentration of bromodomain proteins were 100 nM and the histone peptide was 300 nM, these components are premixed and allowed to equilibrate for 1 hour in the dark. 8 μl of this reaction mixture was added to all wells containing 50 nl of various concentrations of test compound or DMSO vehicle (0.5% final) in Greiner 384 well black low volume microtitre plates and incubated in dark for 60 mins at room temperature. 2 μl of detection mixture containing anti-6his XL665 labeled antibody and streptavidin labeled with europium cryptate was added to all wells and a further dark incubation of at least 30 mins was performed. Plates were then read on the Envision platereader, (λex=317 nm, donor λEM=615 nm; acceptor λEM=665 nm; Dichroic LANCE dual). Time resolved fluorescent intensity measurements were made at both emission wavelengths and the ratio of acceptor/donor was calculated and used for data analysis. All data was normalized to the mean of 16 high and 16 low control wells on each plate. A four parameter curve fit of the following form was then applied: y=a+((b−a)/(1+(10^x/10^c)^d)
(§6) Where ‘a’ is the minimum, ‘b’ is the Hill slope, ‘c’ is the pIC50 and ‘d’ is the maximum.
For orientation: TR-FRET usually uses a lanthanide donor and a delayed reading to cut background.

The next assay has as its target T2, Bromodomain BRD3 (1-435) (Homo sapiens, UniProt Q15059).
T2 construct: Recombinant Human Bromodomains (BRD2 (1-473), BRD3 (1-435) and BRD4 (1-477)); made in house; host or cells: E. coli (pET15b vector)
The assay can be described thus: Time Resolved Fluorescence Resonance Energy Transfer (TR-FRET) binding assay, BRD3. The note with it: BRD3 100 nM, acetylated histone peptide 300 nM. On the procedure:
as §1, §2, §3, §4, §5, §6

Another assay addresses T3, Bromodomain BRD4 (1-477) (Homo sapiens, UniProt O60885).
T3 construct: Recombinant Human Bromodomains (BRD2 (1-473), BRD3 (1-435) and BRD4 (1-477)); made in house; host or cells: E. coli (pET15b vector)
The assay can be described thus: Time Resolved Fluorescence Resonance Energy Transfer (TR-FRET) binding assay, BRD4. The note with it: BRD4 100 nM, acetylated histone peptide 300 nM. As to the method: as §1, §2, §3, §4, §5, §6

In assay [1] the test system is LPS induced IL-6 secretion from whole blood. Description: Measurement of LPS induced IL-6 secretion from whole blood. The class given is cell-based. The note with it: LPS 200 ng/ml, 24 hours, IL-6 by immunoassay. As to the method: Activation of monocytic cells by agonists of toll-like receptors such as bacterial lipopolysaccharide (LPS) results in production of key inflammatory mediators including IL-6. Such pathways are widely considered to be central to the pathophysiology of a range of auto-immune and inflammatory disorders.
Compounds to be tested are diluted to give a range of appropriate concentrations of which 1 μl of the diluted stocks is added to a 96 well plate. Following addition of whole blood (130 μl) the plates are incubated at 37 degrees (5% CO2) for 30 min before the addition of 10 μl of 2.8 ug/ml LPS, diluted in complete RPMI 1640 (final concentration=200 ng/ml), to give a total volume of 140 ul per well. After further incubation for 24 hours at 37 degrees, 140 μl of PBS are added to each well. The plates are sealed, shaken for 10 minutes and then centrifuged (2500 rpm×10 min). 100 μl of the supernatant are removed and IL-6 levels assayed by immunoassay (typically by MesoScale Discovery technology) either immediately or following storage at −20 degrees. Concentration response curves for each compound was generated from the data and an IC50 value was calculated.

Where a name gives a salt, the structure may show the parent alone.

T2 sequence (Q15059 1-435): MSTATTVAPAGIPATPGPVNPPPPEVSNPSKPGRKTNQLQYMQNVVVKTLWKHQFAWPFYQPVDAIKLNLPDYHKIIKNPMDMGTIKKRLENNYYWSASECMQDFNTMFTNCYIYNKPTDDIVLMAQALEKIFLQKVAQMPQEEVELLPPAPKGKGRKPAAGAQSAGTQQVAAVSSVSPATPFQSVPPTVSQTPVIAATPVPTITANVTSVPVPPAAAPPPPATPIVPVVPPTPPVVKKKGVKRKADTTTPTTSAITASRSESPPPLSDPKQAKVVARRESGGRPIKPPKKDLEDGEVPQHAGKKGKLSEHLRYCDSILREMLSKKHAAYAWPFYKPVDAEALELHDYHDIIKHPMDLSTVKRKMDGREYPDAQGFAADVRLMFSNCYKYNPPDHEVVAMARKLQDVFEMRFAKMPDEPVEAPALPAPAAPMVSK
T1 sequence (P25440 1-473): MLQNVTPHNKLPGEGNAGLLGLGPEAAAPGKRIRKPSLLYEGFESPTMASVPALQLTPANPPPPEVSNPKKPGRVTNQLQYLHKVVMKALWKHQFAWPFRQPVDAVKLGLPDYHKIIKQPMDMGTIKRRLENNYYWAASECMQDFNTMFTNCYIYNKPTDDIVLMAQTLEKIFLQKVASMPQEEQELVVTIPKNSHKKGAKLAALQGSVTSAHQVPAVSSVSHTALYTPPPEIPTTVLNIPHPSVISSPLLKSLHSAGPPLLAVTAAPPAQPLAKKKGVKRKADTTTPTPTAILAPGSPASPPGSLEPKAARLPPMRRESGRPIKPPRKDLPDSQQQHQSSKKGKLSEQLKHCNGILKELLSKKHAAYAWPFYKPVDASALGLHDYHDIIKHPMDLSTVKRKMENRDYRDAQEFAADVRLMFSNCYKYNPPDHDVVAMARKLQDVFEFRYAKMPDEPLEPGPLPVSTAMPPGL

In the case of `CC(=O)N1c2ccc(-c3ccc(C(=O)OCCN(C)C)cn3)cc2[C@H](Nc2ccc(C#N)cn2)C[C@@H]1C` [Example 6, 2-(Dimethylamino)ethyl 6-((2S,4R)-1-acetyl-4-((5-cyanopyridin-2-yl)amino)-2-methyl-1,2,3,4-tetrahydroquinolin-6-yl)nicotinate], the concentration for half-maximal inhibition (IC50) at Bromodomain BRD2 (1-473) was 63.1 to 501 nM; at Bromodomain BRD3 (1-435), 63.1 to 501 nM; on Bromodomain BRD4 (1-477), 63.1 to 501 nM; in assay [1] it was 200 to 3160 nM.

Take `CC(=O)N1c2ccc(-c3ccc(C(=O)OCCCN(C)C)cc3)cc2[C@H](Nc2ccc(Cl)cc2)C[C@@H]1C` [Example 4, 3-(Dimethylamino)propyl 4-((2S,4R)-1-acetyl-4-((4-chlorophenyl)amino)-2-methyl-1,2,3,4-tetrahydroquinolin-6-yl)benzoate]: the IC50 on Bromodomain BRD2 (1-473), at Bromodomain BRD3 (1-435) and at Bromodomain BRD4 (1-477) was 63.1 to 501 nM throughout.

Turning to `CC(=O)N1c2ccc(-c3ccc(C(=O)OCCN(C)C)cc3)cc2[C@H](Nc2ccc(Cl)cc2)C[C@@H]1C` [Example 1, 2-(Dimethylamino)ethyl 4-((2S,4R)-1-acetyl-4-((4-chlorophenyl)amino)-2-methyl-1,2,3,4-tetrahydroquinolin-6-yl)benzoate hydrochloride], the IC50 was 63.1 to 501 nM at Bromodomain BRD2 (1-473), 63.1 to 501 nM on Bromodomain BRD3 (1-435), 63.1 to 501 nM at Bromodomain BRD4 (1-477) and 200 to 3160 nM in assay [1].

For the compound `CC(=O)N1c2ccc(-c3ccc(C(=O)OCC[N+](C)(C)C)cc3)cc2[C@H](Nc2ccc(Cl)cc2)C[C@@H]1C` [Example 2, 2-((4-((2S,4R)-1-Acetyl-4-((4-chlorophenyl)amino)-2-methyl-1,2,3,4-tetrahydroquinolin-6-yl)benzoyl)oxy)-N,N,N-trimethylethanaminium, formate], the half-inhibitory concentration (IC50) on Bromodomain BRD2 (1-473) was 63.1 to 501 nM; at Bromodomain BRD3 (1-435) it was 63.1 to 501 nM; on Bromodomain BRD4 (1-477) it was 63.1 to 501 nM; in assay [1], 200 to 3160 nM.

For `CC(=O)N1c2ccc(-c3ccc(C(=O)OCCN(C)C)cc3)cc2[C@H](NC(=O)OC(C)C)C[C@@H]1C` [Example 8, 2-(Dimethylamino)ethyl 4-((2S,4R)-1-acetyl-4-((isopropoxycarbonyl)amino)-2-methyl-1,2,3,4-tetrahydroquinolin-6-yl)benzoate], the IC50 on Bromodomain BRD2 (1-473) is 63.1 to 501 nM; at Bromodomain BRD3 (1-435) it was 63.1 to 501 nM; on Bromodomain BRD4 (1-477) it was 63.1 to 501 nM; in assay [1] it was 200 to 3160 nM.

For `CC(=O)N1c2ccc(-c3ccc(C(=O)OCCC[N+](C)(C)C)cc3)cc2[C@H](Nc2ccc(Cl)cc2)C[C@@H]1C` [Example 3, 3-((4-((2S,4R)-1-Acetyl-4-((4-chlorophenyl)amino)-2-methyl-1,2,3,4-tetrahydroquinolin-6-yl)benzoyl)oxy)-N,N,N-trimethylpropan-1-aminium, formate], the concentration for half-maximal inhibition (IC50) on Bromodomain BRD2 (1-473) was 63.1 to 501 nM; on Bromodomain BRD3 (1-435), 63.1 to 501 nM; at Bromodomain BRD4 (1-477) it was 63.1 to 501 nM; in assay [1] it was 200 to 3160 nM.

For the compound `CC(=O)N1c2ccc(-c3ccc(C(=O)OCCCN(C)C)cc3)cc2[C@H](NC(=O)OC(C)C)C[C@@H]1C` [Example 7, 3-(Dimethylamino)propyl 4-((2S,4R)-1-acetyl-4-((isopropoxycarbonyl)amino)-2-methyl-1,2,3,4-tetrahydroquinolin-6-yl)benzoate], the IC50 on Bromodomain BRD2 (1-473) was 63.1 to 501 nM; on Bromodomain BRD3 (1-435), 63.1 to 501 nM; at Bromodomain BRD4 (1-477), 63.1 to 501 nM; in assay [1] it was 200 to 3160 nM.

On to `CC(=O)N1c2ccc(-c3ccc(C(=O)OCCCN(C)C)cn3)cc2[C@H](Nc2ccc(C#N)cn2)C[C@@H]1C` [Example 5, 3-(Dimethylamino)propyl 6-((2S,4R)-1-acetyl-4-((5-cyanopyridin-2-yl)amino)-2-methyl-1,2,3,4-tetrahydroquinolin-6-yl)nicotinate], for which the half-inhibitory concentration (IC50) at Bromodomain BRD2 (1-473) was 63.1 to 501 nM; at Bromodomain BRD3 (1-435), 63.1 to 501 nM; at Bromodomain BRD4 (1-477), 63.1 to 501 nM; in assay [1] it was 200 to 3160 nM.

Broadly, the IC50 is the concentration needed to halve the response being measured.
